Measurements taken from patent publication USRE42930E1, “Aziridinyl-epothilone compounds” (Bristol-Myers Squibb Company, priority 2006, dated 2011).
Read-outs that look alike come from different tables or passages of the source. Values belong to the compound of their own block, whether it stands above or below them.

Key:
[1] = target: T1, folate receptor (FR) (Homo sapiens, UniProt P15328); assay: Displacement of radiolabeled folic acid from FR expressed on KB tumor cells; format: binding; conditions: compared to folic acid (RA = 1.0)
T1 construct: FR expressed on KB tumor cells grown to confluence; endogenous in cells; host or cells: KB tumor cells
Protocol: The binding of these folate conjugates of Compound AA to FR was determined in an assay that measures displacement of radiolabeled folic acid from FR expressed on KB tumor cells grown to confluence.

[2] = system: HCT116VM46; assay: In vitro MTS cytotoxicity assay, taxane-resistant HCT116VM46 (R/S ratio); format: cell-based, human; conditions: R/S ratio = HCT116VM46 IC50/HCT116 IC50
Protocol: (§1) In vitro cytotoxicity was assessed in tumor cells using a tetrazolium-based colorimetric assay which takes advantage of the metabolic conversion of MTS (3-(4,5-dimethylthiazol-2-yl)-5-(3-carboxymethoxyphenyl)-2-(4-sulphenyl)-2H-tetrazolium, inner salt) to a reduced form that absorbs light at 492 nm. Cells were seeded 24 hr prior to addition of the epothilone, epothilone analog, conjugated epothilone, or conjugated epothilone analog. Following a 72 hour incubation at 37° C. with serially diluted compound, MTS, in combination with the electron coupling agent phenazine methosulfate, was added to the cells. The incubation was continued for 3 hours, then the absorbency of the medium at 492 nm was measured with a spectrophotometer to obtain the number of surviving cells relative to control populations. The results are expressed as median cytotoxic concentrations (IC50 values).
(§2) Other epothilone analogs, e.g., aziridinyl epothilones, are known in the art (see, e.g., U.S. Pat. No. 6,399,638; Regueiro-Ren, A, et al. (2001) Org. Letters. 3:2693-96) and show potent antitumor cytotoxicity. For example, an MTS assay that compared the relative cytotoxic potency of a number of epothilone analogs against a pair of taxane-resistant cancer cell lines (HCTVM46 and […]) was conducted (see Table 1). HCTVM46 is a human colon carcinoma cell line derived from the sensitive HCT116 parent line, and is resistant to taxanes due to overexpression of the 170 kD p-glyprotein drug efflux transporter. A2780Tax is a human ovarian carcinoma cell line derived from the parent A2780 line, and is resistant to paclitaxel as a result of a mutation in the tubulin amino acid sequence that impairs the ability of paclitaxel to bind.

[3] = system: A2780 ovarian carcinoma cell line; assay: In vitro MTS proliferation/cytotoxicity assay, A2780; format: cell-based, human
Protocol: as §1, §2
(§3) As is shown in Table 1, various aziridinyl epothilone analogs (Compounds CC-EE) show potent antitumor activity against both the HCT116 colon and A2780 ovarian carcinoma cell lines, compared to other known antitumor agents, e.g., paclitaxel, compound AA, and epothilone B.

[4] = system: HCT116 colon carcinoma cell line; assay: cells; format: cell-based, human
Protocol: as §1, §2, §3

[5] = system: A2780Tax; format: cell-based, human
Protocol: as §1, §2

[6] = system: FRα(−) M109 murine lung carcinoma; assay: In vivo antitumor efficacy, FRα(−) M109 parent tumor model; parameters: species or system mice; conditions: bolus IV; FIG. 5
Excerpt: (§4) Female CD2F1 mice (Harlan Sprague-Dawley Inc., 20-22 g) maintained in a controlled environment and provided with water and food ad libitum were used in these studies. The murine FRα(−) Madison 109 (M109) lung carcinoma (Marks et al., 1977) and the FR-expressing (FRα(+)) 98M109 variant were used to evaluate the efficacy of the epothilone, epothilone analog (e.g., epothilone derivative), folate-epothilone conjugate, or folate-epothilone analog conjugate. In addition, the human head and neck epidermoid carcinoma KB grown in nude mice was also used for this purpose. […]
(§5) Tumor response was determined by measurement of tumors with a caliper twice a week, until the tumors reached a predetermined “target” size of 1 gm. […]
(§6) Antitumor activity was evaluated at the maximum tolerated dose (MTD) which is defined as the dose level immediately […] which excessive toxicity (i.e. more than one death) occurred. When death occurred, the day of death was recorded. […]
(§7) To estimate tumor cell kill, the tumor volume doubling time (TVDT) was first calculated with the formula: TVDT=Median time (days) for control tumors to reach target size−Median time (days) for control tumors to reach half the target size And, Log cell kill=T-C÷(3.32×TVDT) Statistical evaluations of data were performed using Gehan's generalized Wilcoxon test.

[7] = system: KB nasopharyngeal epidermoid carcinoma xenografts; assay: In vivo antitumor efficacy, KB FRα(+) xenografts in nude mice; conditions: KB model, FIG. 4
Excerpt: as §4, §5, §6, §7

[8] = system: FRα(+) 98M109 tumors; assay: In vivo antitumor efficacy, FRα(+) 98M109 tumors with folate analog competition; parameters: species or system mice; conditions: folate analog at 20-fold excess of the dose of compound J; FIG. 6
Excerpt: as §4, §5, §6, §7

[9] = system: clonogenic KB cancer cells; assay: Clonogenic cell survival (colony formation) assay; format: cell-based, human
Protocol: Cancer cells were seeded at 3.0E+05 cells in a T75 flask with 10 ml of RPMI1640 media, free of folic acid, and containing 10% fetal bovine serum and 25 mM HEPES. Cells were grown in a 37° C. incubator containing 5% CO2 for 2 days. On day 2, supernatants were removed from the flasks, and the flasks were divided into 2 groups. One group of cells were incubated with 5 ml of media containing […] of folic acid (Sigma) for 30 minutes and the others were grown in 5 ml of media without added folic acid. Cells were then treated with 20 nM of epothilone, epothilone analog, conjugated epothilone, or conjugated epothilone analog for one hour. At the end of the incubation, the drugs were removed from the flasks and the cells were washed with PBS buffer 3×. After washing, 5 ml of complete media were added into each flask, and the cell was grown in the CO2 incubator for 23 hours. The next morning, the cells were removed from the flasks by trypsinization, cell numbers were determined, and then cells were plated in a 6 well plates. Ten days after plating, colonies were stained with crystal violet and counted. The surviving fractions were determined.
This is important because it is the aziridine epothilone analog, e.g., Compound G, that mediates the antitumor effects upon release from folic acid. […] The concentration needed to kill 90% of clonogenic KB cancer cells (IC90) was determined after a drug exposure duration of 17 hours.

[10] = Homo sapiens, A2780, MTS assay, mean IC50 ± SD from four separate experiments, read-out: A2780 IC5
[11] = Homo sapiens, HCT-116, read-out: HCT116 IC50 (nM)
[12] = Homo sapiens, A2780, read-out: A2780 IC5 (nM)

T1 sequence (P15328 25-234): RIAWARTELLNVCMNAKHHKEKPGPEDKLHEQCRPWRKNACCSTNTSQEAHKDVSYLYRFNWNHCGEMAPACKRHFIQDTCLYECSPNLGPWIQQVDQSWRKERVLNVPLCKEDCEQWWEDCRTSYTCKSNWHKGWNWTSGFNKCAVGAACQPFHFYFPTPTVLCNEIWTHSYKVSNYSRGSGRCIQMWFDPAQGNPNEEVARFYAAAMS

relative affinity (RA) for folate receptor [1]: 1.0
Structure (SMILES): Nc1nc2ncc(CNc3ccc(C(=O)N[C@@H](CCC(=O)O)C(=O)O)cc3)nc2c(=O)[nH]1 [folic acid]

Structure (SMILES): CC(=O)O[C@H]1C(=O)[C@@]2(C)[C@H]([C@H](OC(=O)c3ccccc3)[C@]3(O)C[C@H](OC(=O)[C@H](O)[C@@H](NC(=O)c4ccccc4)c4ccccc4)C(C)=C1C3(C)C)[C@]1(OC(C)=O)CO[C@@H]1C[C@@H]2O [paclitaxel]
R/S Ratio (HCT116) [2]: 150 | IC50 [3, 10]: 3.1 ± 1 nM

Structure (SMILES): C/C(=C\c1csc(C)n1)C1C[C@@H]2N[C@@H]2CCCC(C)[C@H](O)[C@@H](C)C(=O)C(C)(C)[C@@H](O)CC(=O)O1 (some centres unmarked) [Compound CC]
IC50 [4, 11]: 4.2 ± 2.8 nM | R/S Ratio (HCT116) [2]: 3.1 | IC50 [3, 12]: 3.4 ± 1.5 nM | R/S Ratio (A2780) [5]: 4.7

Structure (SMILES): C/C(=C\c1csc(CN)n1)C1C[C@@H]2O[C@]2(C)CCCC(C)[C@H](O)[C@@H](C)C(=O)C(C)(C)[C@@H](O)CC(=O)O1 (some centres unmarked) [Compound AA]
IC50 ([4]; Homo sapiens, HCT-116, MTS assay, mean IC50 ± SD from four separate experiments, read-out: HCT116 IC50): 1.2 ± 0.3 nM | R/S Ratio (HCT116) [2]: 14.8 | IC50 [3, 10]: 1.1 ± 0.4 nM | R/S Ratio (A2780) [5]: 3

Structure (SMILES): C/C(=C\c1csc(C)n1)[C@@H]1C[C@@H]2O[C@]2(C)CCC[C@H](C)[C@H](O)[C@@H](C)C(=O)C(C)(C)[C@@H](O)CC(=O)N1 [ixabepilone]
antitumor activity in FRα(−) M109 parent tumor model [6]: active at its MTD

Structure (SMILES): C/C(=C\c1csc(C)n1)[C@@H]1C[C@H]2[C@@H](CCC[C@H](C)[C@H](O)[C@@H](C)C(=O)C(C)(C)[C@@H](O)CC(=O)O1)N2CCOC(=O)OCCSSC[C@H](NC(=O)[C@H](CC(=O)O)NC(=O)[C@H](CCCNC(=N)N)NC(=O)[C@H](CC(=O)O)NC(=O)CC[C@H](NC(=O)c1ccc(NCc2cnc3nc(N)[nH]c(=O)c3n2)cc1)C(=O)O)C(=O)O (some centres unmarked) [Compound J]
relative affinity (RA) for folate receptor [1]: 0.77 | toxicity at two lower dose levels ([7]; dose levels below MTD): minimal toxicity | antitumor effects compared at the MTDs ([7]; versus ixabepilone): superior antitumor effects than ixabepilone | antitumor activity in FRα(−) M109 parent tumor model [6]: poor activity at all dose levels tested | effect of co-administration of a folate analog on antitumor effects [8]: protect FRα(+) 98M109 tumors from the antitumor effects of compound J

Structure (SMILES): C/C(=C\c1csc(C)n1)[C@@H]1C[C@H]2[C@@H](CCCC(C)[C@H](O)[C@@H](C)C(=O)C(C)(C)[C@@H](O)CC(=O)O1)N2CCO (relative stereo) [Compound G, [1S-[1R*,3R*(E),7R*,10S*,11R*,12R*,16S*]]-7,11-Dihydroxy-17-[2-hydroxyethyl]-8,8,10,12-tetramethyl-3-[1-methyl-2-(2-methyl-4-thiazolyl)ethenyl]-4-oxa-17-azabicyclo[14.1.0]heptadecane-5,9-dione]
fold more potent than compound AA ([9]; IC90, KB cells, 17 hours): ~4 fold | fold more potent than compound CC ([9]; IC90, KB cells, 17 hours): ~2 fold | fold more potent than ixabepilone ([9]; IC90, KB cells, 17 hours): ~6 fold | concentration needed to kill 90% of clonogenic KB cancer cells (IC90) ([9]; drug exposure duration of 17 hours, FIG. 3): 4.3 nM

Structure (SMILES): C/C(=C\c1csc(C)n1)[C@@H]1C[C@@H]2O[C@]2(C)CCC[C@H](C)[C@H](O)[C@@H](C)C(=O)C(C)(C)[C@@H](O)CC(=O)O1 [Epothilone B]
IC50 ([4]; MTS assay, mean IC50 ± SD from four separate experiments, read-out: HCT116 IC50): 0.4 ± 0.13 nM | R/S Ratio (HCT116) [2]: 0.5 | IC50 ([3]; MTS assay, mean IC50 ± SD from four separate experiments, read-out: A2780 IC5): 0.23 ± 0.09 nM | R/S Ratio (A2780) [5]: 2.5

Structure (SMILES): C/C(=C\c1csc(C)n1)C1C[C@H]2[C@@H](CCCC(C)[C@H](O)[C@@H](C)C(=O)C(C)(C)[C@@H](O)CC(=O)O1)N2C (some centres unmarked) [DD]
IC50 [4, 11]: 0.37 ± 0.13 nM | R/S Ratio (HCT116) [2]: 0.6 | IC50 [3, 12]: 0.25 ± 0.06 nM | R/S Ratio (A2780) [5]: 4.1
